Assay results taken from ChEMBL document CHEMBL1140102, “Novel A-ring and B-ring modified combretastatin A-4 (CA-4) analogues endowed with interesting cytotoxic activity” (J Med Chem, 2008).

How the values were obtained:
BMEC = assay: Cytotoxicity against BMEC by sulforhodamine B test; assay type: cell-based; conditions: Bos taurus
HT-29 [1] = assay: Cytotoxicity against human HT29 cells by sulforhodamine B test; assay type: functional, cell-based
NCI-H460 = assay: Cytotoxicity against human H460 cells by sulforhodamine B test; assay type: functional, cell-based
[2] = Displacement of [3H]colchicine from tubulin by scintillation proximity assay
HT-29 [3] = assay: Cell cycle arrest in human HT29 cells assessed as accumulation at G0/G1 phase at 0.5 uM after 24 hrs by flow cytometry assay; assay type: functional
HT-29 [4] = assay: Cell cycle arrest in human HT29 cells assessed as accumulation at S phase at 0.5 uM after 24 hrs by flow cytometry assay; assay type: functional
HT-29 [5] = assay: Cell cycle arrest in human HT29 cells assessed as accumulation at G2/M phase at 0.5 uM after 24 hrs by flow cytometry assay; assay type: functional

| Structure (SMILES) | IC50 (BMEC) | IC50 (HT-29 [1]) | IC50 (NCI-H460) | IC50 [2] | Activity (HT-29 [3]) | Activity (HT-29 [4]) | Activity (HT-29 [5]) |
| --- | --- | --- | --- | --- | --- | --- | --- |
| COc1ccc(/C=C\c2cc(OC)c3occc3c2)cc1O | 35 nM | 590 nM | 12 nM | 50 nM |  |  |  |
| COc1ccc(/C=C\c2cc(OC)c3c(c2)OCO3)cc1O [Combretastatin A-2] | 48 nM | > 1000 nM | 40 nM |  |  |  |  |
| COc1cc(/C=C\c2cc(O)c3ccsc3c2)cc2sccc12 | 250 nM |  | 312 nM |  |  |  |  |
| COc1ccc(/C=C\c2cc(OC)c3ccsc3c2)cc1O | 17 nM | 260 nM | 13 nM | 20 nM |  |  |  |
| COc1cc(/C=C\c2cc(O)c3ccsc3c2)cc2c1OCO2 | 880 nM |  |  | 4900 nM |  |  |  |
| COc1cc(/C=C\c2cc(O)c3ccoc3c2)cc2c1OCO2 | > 3000 nM |  |  | 7700 nM |  |  |  |
| COc1ccc(/C=C/c2cc(OC)c3ccoc3c2)cc1O | > 10000 nM |  |  | 6200 nM |  |  |  |
| COc1cc2c(c(OC)c1OC)-c1ccc(OC)c(=O)cc1[C@@H](NC(C)=O)CC2 [COLCHICINE] |  |  |  | 1700 nM |  |  |  |
| COc1cc(/C=C\c2cc(O)c3ccsc3c2)cc(OC)c1 | 110 nM |  |  | 3800 nM |  |  |  |
| COc1ccc(/C=C\c2cc(OC)c3ccoc3c2)cc1O | 35 nM | 420 nM | 19 nM | 20 nM |  |  |  |
| COc1cc(/C=C\c2cc(O)c3ccoc3c2)cc(OC)c1 | 800 nM |  |  | 4000 nM |  |  |  |
| COc1ccc(/C=C\c2cc(OC)c(OC)c(OC)c2)cc1O [COMBRETASTATIN A4] | 3.7 nM | 118 nM | 1.2 nM | 100 nM |  |  |  |
| COc1ccc(/C=C\c2ccc3c(c2)C(C)(C)CCC3(C)C)cc1O | > 10000 nM |  |  |  |  |  |  |
| COc1ccc(/C=C\c2cc(OC)c3ccsc3c2)cc1 | 123 nM |  | 110 nM |  |  |  |  |
| COc1ccc(/C=C\c2cc(OC)c3ccsc3c2)cc1N.Cl | 20 nM | 21 nM | 19 nM | 6200 nM | 28% | 22% | 50% |
